According to patent publication US20250387388A1, “COMPOUND AS TRK INHIBITOR AND/OR RET INHIBITOR AND USE THEREOF” (Medinno Pharmaceutical Technology (Zhuhai) Co., Ltd., priority 2022, published 2025):

Key:
[1] = tested on: diabetic foot animal model; test: Diabetic foot animal model (high-fat diet mice, back wound); assay type: in vivo, C57BL/6 male mice
Excerpt: Twenty 2-month-old normal wild-type C57BL/6 male mice were ordered from Jicai Pharmaceutical and divided into two groups of 10 each. One group was fed a standard diet (SD), and the other group was fed a 60% high-fat diet (HFD) to induce obesity. Both groups were fed under the same conditions for about 6 months. Additionally, five 2-month-old young male mice were ordered to perform subsequent wound modeling and comparison with the SD group (8 months old, 10 mice) and the HFD group (8 months old, 10 mice). Mice were anesthetized with isoflurane, and a razor was used to remove the back hair, exposing the back skin. A marker pen and ruler were used to draw a 1.0 cm×0.5 cm rectangular area on each side of the back. A sterilized surgical scissor was used to cut away the skin in this area without damaging the subcutaneous tissue. After the mice regained consciousness, they were carefully placed back in their cages. The animals were euthanized at specified time intervals after the injury, and the wound tissue was collected for subsequent experiments and analysis. After creating wounds on the left and right sides of the mouse's back, the mice were grouped and administered drugs as indicated in the table below (where Control represents a blank drug control with DMSO+vehicle). The 1228 gel (0.5% or 1%) was administered every 12 hours, with a dose of 50 mg each time. The wounds were photographed and weighed daily (every 24 hours) for 7 days, and then samples were collected at the 7th day. Specific operational details are described in the section “3. Sample Collection and Analysis” below. [table] After anesthesia, the mice were placed on an operation table with their backs extended, and high-definition photographs of the entire back and the local wound area of the mice were taken (including a ruler). […] The body weight of the mice was also measured to analyze the impact of the drug on systemic metabolism. On the seventh day of wound repair after modeling on the mouse's back, the mice were euthanized, and the wound tissue was collected for subsequent experiments and analysis, including tissue from the center of the wound and distal non-wounded control skin. The tissue was embedded in OCT and subjected to cryosectioning for subsequent HE or multiple staining analysis. Mouse skin tissue was placed in an embedding box filled with OCT (Tissue-Tek® O.C.T. Compound, Catalog #4583, Sakura Finetek USA Inc) and laid flat on dry ice to quick-freeze. Once the OCT was fully frozen, the embedding box was transferred to a −20° C. freezer for storage. Before sectioning, the cryostat was pre-cooled to −25° C. […] The flattened tissue sections were attached to glass slides and checked under a microscope for completeness. The sections were left to air-dry at room temperature for 2-3 hours before being stored in a −20° C. freezer. The sections were taken out of the −20° C. freezer and allowed to thaw at room temperature, and the condensation water was dried for 10-20 minutes until completely dry. The sections were then fixed with 500-1000 μL of frozen 4% paraformaldehyde (4% paraformaldehyde prepared by diluting 10 ml of 16% PFA—paraformaldehyde in 30 ml of frozen PBS and stored at 4° C.) for 10 minutes at room temperature. The sections were washed once with dH2O (single distilled water) (incubation<1 minute). After washing, hematoxylin solution was added, and the sections were incubated for 55-60 seconds, then quickly washed three times with running tap water until no blue dye was visible. Eosin solution was added next, and the sections were incubated for 25-30 seconds, then quickly washed three times with running tap water, followed by washing with 70% ethanol once. The sections were dehydrated in 100% ethanol for 5 minutes and then in xylene for 5 minutes. Finally, the sections were coverslipped with a neutral resin, taking care not to trap air bubbles when placing the coverslip with forceps. […]

RET = RET (Homo sapiens (Human), UniProt P07949); test: Inhibitory activity on RET kinase (HTRF KinEASE-TK); assay type: biochemical; conditions: ATP 16 μM
Excerpt: 3) Formulate 2.5× kinase with 1× kinase reaction buffer.

Sequence of RET (P07949 29-1114): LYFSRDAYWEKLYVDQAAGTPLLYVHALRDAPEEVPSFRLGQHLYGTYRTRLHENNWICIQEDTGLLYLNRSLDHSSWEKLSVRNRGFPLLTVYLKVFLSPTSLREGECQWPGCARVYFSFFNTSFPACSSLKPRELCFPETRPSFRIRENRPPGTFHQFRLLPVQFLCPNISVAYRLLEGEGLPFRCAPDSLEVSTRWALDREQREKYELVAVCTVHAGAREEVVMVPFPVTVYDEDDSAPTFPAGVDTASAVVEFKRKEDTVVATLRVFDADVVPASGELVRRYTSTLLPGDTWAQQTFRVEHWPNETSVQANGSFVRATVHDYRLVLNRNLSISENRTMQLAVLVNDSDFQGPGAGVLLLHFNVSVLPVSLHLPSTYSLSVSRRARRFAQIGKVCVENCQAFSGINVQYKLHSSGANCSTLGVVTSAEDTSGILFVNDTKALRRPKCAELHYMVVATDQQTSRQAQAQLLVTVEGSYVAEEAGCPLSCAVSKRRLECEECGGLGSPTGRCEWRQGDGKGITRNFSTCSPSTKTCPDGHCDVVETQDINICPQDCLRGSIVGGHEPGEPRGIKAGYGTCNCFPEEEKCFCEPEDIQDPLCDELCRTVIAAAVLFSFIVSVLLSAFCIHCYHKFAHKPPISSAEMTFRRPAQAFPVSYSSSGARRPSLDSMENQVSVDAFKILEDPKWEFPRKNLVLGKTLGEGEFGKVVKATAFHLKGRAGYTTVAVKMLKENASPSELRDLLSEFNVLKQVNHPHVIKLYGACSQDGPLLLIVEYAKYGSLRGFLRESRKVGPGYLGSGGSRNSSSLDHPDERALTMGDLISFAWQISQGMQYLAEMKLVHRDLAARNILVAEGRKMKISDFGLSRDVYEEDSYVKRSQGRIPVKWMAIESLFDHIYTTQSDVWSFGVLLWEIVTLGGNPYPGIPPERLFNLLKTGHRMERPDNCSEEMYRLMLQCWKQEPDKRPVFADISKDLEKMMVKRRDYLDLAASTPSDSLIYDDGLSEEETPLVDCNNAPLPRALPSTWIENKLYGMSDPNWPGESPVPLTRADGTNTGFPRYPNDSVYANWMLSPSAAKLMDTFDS

SMILES	Epithelial healing (wound non-healing distance) ([1]; 1% MDI-1228 gel, HFD group)	Area of green lipid droplets in the wound center (Bodipy staining) ([1]; MDI-1228 gel 50 mg every 12 hours, 7 days)	Size of the adipocytes in the wound center (HE staining) ([1]; MDI-1228 gel 50 mg every 12 hours, 7 days, vs. control)	IC50 (RET) [nM]	Lipolysis in the diabetic foot model ([1]; conclusion / summary statement)	Myofibroblasts at the wound ([1]; conclusion / summary statement)	Wound healing ([1]; conclusion / summary statement)
CCc1cc(O)c(F)cc1-c1ccc2c(-c3nc4c([nH]3)CN(C(=O)N3CC[C@H](O)C3)C4)n[nH]c2c1 [MDI-1228, (S)-(2-(6-(2-ethyl-5-fluoro-4-hydroxyphenyl)-1H-indazol-3-yl)-4,6-dihydropyrrolo[3,4-d]imidazol-5-(1H)-yl)(3-hydroxylpyrrolidin-1-yl)ketone]	could effectively promote epithelial healing	significantly reduced	significantly reduced	0.62			
CCc1cc(O)c(F)cc1-c1ccc2c(-c3nc4c([nH]3)CN(C(=O)NCC(O)CCl)C4)n[nH]c2c1 (centres unmarked) [MDI-1288]				3.43	can significantly promote lipolysis	significantly increase the proportion of myofibroblasts	effectively promote wound healing
